The nature of this data set: in vitro. The following applies: human, hela cells, % viability.

As usually defined, the viability is a read-out of living cells in per cent, often relative to untreated cells. Turning to `COc1ccc(-c2nn(CN3CCC(C(N)=O)CC3)c(=S)n2-c2ccccc2)cc1OC` [CBK264299], the viability at 28.5 h, 10 µM worked out at 91.8%. Take `CSc1ccc(CN2CCN(S(=O)(=O)Cc3ccccc3)CC2)cc1` [CBK264301G]: the viability at 28.5 h, 10 µM is 94.2%. The same measure, in the same setting: as for `COc1ccc(OC)c(CN2CCN(CCCc3ccccc3)CC2)c1` [CBK264304], the figure is 100%; as for `O=[N+]([O-])c1ccccc1CN1CCN(Cc2cccc(Oc3ccccc3)c2)CC1` [CBK264307], 91.3%; as for `O=C(Nc1ccc2nsnc2c1NC(=O)c1ccc2nsnc2c1)c1ccc2nsnc2c1` [CBK264309], 95.9%. On the same count and under the same terms, as for `O=[N+]([O-])c1ccc(CN2CCN(C3CCN(Cc4ccccc4)CC3)CC2)cc1` [CBK264310G], the figure is 98.5%. On the same count and under the same terms, in the case of `O=[N+]([O-])c1ccccc1S(=O)(=O)N1CCN(S(=O)(=O)c2ccc(Cl)cc2)CC1` [CBK264311] it was 98.6%; in that of `COc1ccccc1N1CCN(CCC(=O)Nc2ccccc2F)CC1` [CBK264313], 106%.

For the compound `COc1ccc(N2C(=O)/C(=C/c3cc(C)n(-c4cccc(C(=O)O)c4C)c3C)C(=O)NC2=S)cc1` [CBK264315], the viability at 28.5 h, 10 µM (bulk resorufin, single well) worked out at 96.6%. Consider `O=C(CCN1CCN(CCO)CC1)Nc1ccc(F)c(F)c1` [CBK264316], for which the viability at 28.5 h, 10 µM was 100%. Same read-out and setting: as for `Cc1cc(/C=C2/C(=N)N3N=C(Cc4ccccc4)SC3=NC2=O)c(C)n1-c1ccccc1` [CBK264318], the figure is 100%. For `CCCCC1=NN2C(=N)/C(=C/c3cn(Cc4ccc([N+](=O)[O-])cc4)c4ccccc34)C(=O)N=C2S1` [CBK264320], the viability at 28.5 h, 10 µM amounted to 106%. The same measure, in the same setting: as for `O=C(NCCN1CCOCC1)C1CCN(Cc2ccccc2O)CC1` [CBK264324], the figure is 101%; as for `CN1CCN(C(=O)C2CCN(CCCc3ccccc3)CC2)CC1` [CBK264326G], 96%; as for `Cc1cccc(N2CCN(C(=O)C3CCN(Cc4cccc(OCc5ccccc5)c4)CC3)CC2)c1C` [CBK264328G], 94.3%. Same read-out and setting: in the case of `Cc1ccc(S(=O)(=O)N(C)CC(=O)OCC(=O)c2ccccc2)cc1` [CBK264329] it was 95.1%. The same measure, in the same setting: as for `O=C(/C=C/c1ccc(Cl)cc1Cl)NC(=S)Nc1ccccc1F` [CBK264332], the figure is 108%.

Regarding `Cc1cc(C)c2c(O)nc(SCC(=O)c3ccccc3)nc2n1` [CBK264336], the viability at 28.5 h, 10 µM was found to be 100%. On the same count and under the same terms, as for `O=c1/c(=C/c2ccncc2)sc2n1CN(c1cccc(F)c1)CN=2` [CBK264340], the figure is 99.2%; as for `Cc1ccc(-c2cc(C(=O)O)c3cc4c(C(=O)O)cc(-c5ccc(C)o5)nc4cc3n2)o1` [CBK264342], 87.4%. The same measure, in the same setting: as for `Cc1c(NC(=S)NC(=O)Cc2ccccc2)cccc1-c1nc2ncccc2o1` [CBK264345], the figure is 118%; as for `Cc1ccc(N2CCN(C3=NC(=O)/C(=C\c4ccc(O)c([N+](=O)[O-])c4)S3)CC2)cc1` [CBK264347], 92.9%. As for `COc1ccc(CCNS(=O)(=O)N(C)C)cc1` [CBK264348], the viability at 28.5 h, 10 µM stood at 93%. Same read-out and setting: as for `COc1ccc(C(=O)CSc2nnc(C)[nH]2)cc1[N+](=O)[O-]` [CBK264350], the figure is 95.5%; as for `CC(=O)Nc1ccc(N(CC(O)Cn2c3ccccc3c3ccccc32)S(C)(=O)=O)cc1` (stereo not drawn) [CBK264352], 96.7%; as for `CC1(C)Cc2c(sc(NC(=O)Cc3ccccc3)c2C(=O)O)CO1` [CBK264354], 110%. As to `Cc1ccc(/C=C2\SC(=S)N(CCCC(=O)N3CCC(Cc4ccccc4)CC3)C2=O)cc1` [CBK264356], the viability at 28.5 h, 10 µM amounted to 101%. Still for that read-out and setting: in the case of `O=C(Cn1nnc(-c2ccccc2)n1)Nc1ccccc1C(=O)O` [CBK264358] it was 103%.

On to `COc1ccc(-n2nc3cc(C)c(NC(=S)NC(=O)/C=C/c4ccco4)cc3n2)cc1` [CBK264359], for which the viability at 28.5 h, 10 µM was 109%.

As to `O=C(COc1ccccc1)NC(=S)Nc1cccc(-c2nc3ccccc3s2)c1` [CBK264360], the viability at 28.5 h, 10 µM was found to be 107%. On the same count and under the same terms, in the case of `O=[N+]([O-])c1ccc(N2CCN(S(=O)(=O)c3ccc4ccccc4c3)CC2)cc1NC1CC1` [CBK264361] it was 111%. With `NS(=O)(=O)c1ccc(CCNC(=O)c2cc(-c3ccccc3)nc3ccccc23)cc1` [CBK264365], the viability at 28.5 h, 10 µM is 96.9%.

As for `O/N=C1/CCCCCC1NO` (stereo not drawn) [CBK264368A], the viability at 28.5 h, 10 µM was 107%. The same measure, in the same setting: in the case of `Cc1[nH]c2ccccc2c1-c1csc(-c2ccncc2)n1` [CBK264371] it was 96.8%. Same read-out and setting: as for `CC(=O)Oc1ccc(C(=O)NCc2ccc3c(c2)OCO3)cc1` [CBK264372], the figure is 91.2%. Same read-out and setting: as for `Cc1ccc(O)c(NC(=S)NC(=O)COc2ccccc2)c1` [CBK264373], the figure is 106%. In the case of `CCCCOc1ccc(S(=O)(=O)Nc2ccc(-c3cn4ccccc4n3)cc2)cc1` [CBK264374], the viability at 28.5 h, 10 µM amounted to 88.9%. Still for that read-out and setting: in the case of `NS(=O)(=O)c1ccc(CCNC(=O)CN2C(=O)c3ccccc3C2=O)cc1` [CBK264377] it was 96%; in that of `CC(C)(c1ccccc1)c1ccc(OCCOc2ccc(/C=C3\SC(=S)NC3=O)cc2)cc1` [CBK264378], 91%; in that of `NS(=O)(=O)c1ccc(CCNC(=O)/C=C/c2ccccc2Cl)cc1` [CBK264379], 94%. The same measure, in the same setting: in the case of `O=C(COc1ccccc1)NC(=S)Nc1cc(-c2nc3ncccc3o2)ccc1Cl` [CBK264380] it was 89.3%; in that of `O=S(=O)(c1ccc(Cl)cc1)N1CCN(CC(O)Cn2c3ccccc3c3ccccc32)CC1` (stereo not drawn) [CBK264383], 105%; in that of `CCOc1ccc(NCCCCO)cc1` [CBK264386], 92%. Still for that read-out and setting: as for `OCc1ccccc1CN1CCOCC1` [CBK264388C], the figure is 83.3%. `NS(=O)(=O)c1ccc(CCNC(=O)C2c3ccccc3Oc3ccccc32)cc1` [CBK264389]: the viability at 28.5 h, 10 µM was 104%. Still for that read-out and setting: as for `Cc1cc(C(=O)NCCc2ccc(S(N)(=O)=O)cc2)ccc1[N+](=O)[O-]` [CBK264390], the figure is 105%; as for `O=C(/C=C/c1cccc([N+](=O)[O-])c1)NC(=S)Nc1ccc(-c2nc3ncccc3o2)cc1` [CBK264391], 99.2%. On the same count and under the same terms, as for `NS(=O)(=O)c1ccc(CCNC(=O)c2ccccc2Oc2ccccc2)cc1` [CBK264394], the figure is 89.4%; as for `O=[N+]([O-])c1c(N2CCN(CCO)CC2)ccc2nonc12` [CBK264397], 96%; as for `Cc1cc(C)nc(Sc2nnc(-c3ccc(C)c(S(=O)(=O)N4CCOCC4)c3)c3ccccc23)n1` [CBK264400], 105%. On to `CCc1cc2c3c(c(=O)oc2cc1OCc1cc(C(=O)O)oc1C)CCCC3` [CBK264402], for which the viability at 28.5 h, 10 µM was 98.8%. Same read-out and setting: in the case of `Cc1ccccc1C(=O)NC(=S)Nc1sc2c(c1C#N)CCCC2` [CBK264403] it was 98.3%. The same measure, in the same setting: as for `COc1cc(/C=C/C(=O)O)cc(S(=O)(=O)N2CCc3ccccc3C2)c1OC` [CBK264406], the figure is 96.8%; as for `Cc1cc(C)n(-c2cc(N3CCN(S(=O)(=O)Cc4ccccc4)CC3)ccc2[N+](=O)[O-])n1` [CBK264407], 115%.

These data come from PMC12040169 (PLOS Biology, 2025).
